The source made the active and inactive calls. The rule behind the calls is not given here.
Assays:
Acetylcholinesterase = Acetylcholinesterase (Electrophorus electricus, UniProt O42275)
Description: Inhibition of electric eel AChE by Ellman's method

Cholinesterase = Cholinesterase (Equus caballus, UniProt P81908)
Description: Inhibition of BChE from equine serum by Ellman's method

[1] = biological target: T1, Muscarinic acetylcholine receptor M1 (Homo sapiens) (UniProt P11229); details: CHO
T1 sequence (whole entry): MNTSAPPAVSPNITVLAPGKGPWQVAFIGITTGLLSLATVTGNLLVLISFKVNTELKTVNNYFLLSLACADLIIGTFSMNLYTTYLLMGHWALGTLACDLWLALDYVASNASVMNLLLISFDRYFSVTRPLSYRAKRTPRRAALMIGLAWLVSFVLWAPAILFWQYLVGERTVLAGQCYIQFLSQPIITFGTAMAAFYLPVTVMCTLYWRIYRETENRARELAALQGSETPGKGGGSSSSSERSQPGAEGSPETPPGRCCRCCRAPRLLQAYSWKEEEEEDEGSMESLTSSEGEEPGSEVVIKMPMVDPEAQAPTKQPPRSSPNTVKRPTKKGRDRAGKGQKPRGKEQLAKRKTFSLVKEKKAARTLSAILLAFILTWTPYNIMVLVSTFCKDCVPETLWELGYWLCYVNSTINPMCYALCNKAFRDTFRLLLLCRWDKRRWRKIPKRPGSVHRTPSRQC
Description: Displacement of [3H]NMS from human muscarinic M1 receptor expressed in CHO cells in ternary complex by EATCM analysis

[2] = biological target: T1, Muscarinic acetylcholine receptor M1 (Homo sapiens); details: CHO; remark: listed apart in the source
Description: Displacement of [3H]NMS from human muscarinic M1 receptor expressed in CHO cells in binary complex by EATCM analysis

Rattus norvegicus [3] = assay: Antiamnesic activity in Wistar rat assessed as increase in total exploration time at 2 umol/100 g body weight, ip by eight-arm radial maze cognition test; assay type: functional, organism-based
Rattus norvegicus [4] = assay: Antiamnesic activity against scopolamine-induced memory loss in Wistar rat assessed as increase in total exploration time at 2 umol/100 g body weight, ip by eight-arm radial maze cognition test; assay type: functional, organism-based

Chain of Acetylcholinesterase (O42275 whole entry): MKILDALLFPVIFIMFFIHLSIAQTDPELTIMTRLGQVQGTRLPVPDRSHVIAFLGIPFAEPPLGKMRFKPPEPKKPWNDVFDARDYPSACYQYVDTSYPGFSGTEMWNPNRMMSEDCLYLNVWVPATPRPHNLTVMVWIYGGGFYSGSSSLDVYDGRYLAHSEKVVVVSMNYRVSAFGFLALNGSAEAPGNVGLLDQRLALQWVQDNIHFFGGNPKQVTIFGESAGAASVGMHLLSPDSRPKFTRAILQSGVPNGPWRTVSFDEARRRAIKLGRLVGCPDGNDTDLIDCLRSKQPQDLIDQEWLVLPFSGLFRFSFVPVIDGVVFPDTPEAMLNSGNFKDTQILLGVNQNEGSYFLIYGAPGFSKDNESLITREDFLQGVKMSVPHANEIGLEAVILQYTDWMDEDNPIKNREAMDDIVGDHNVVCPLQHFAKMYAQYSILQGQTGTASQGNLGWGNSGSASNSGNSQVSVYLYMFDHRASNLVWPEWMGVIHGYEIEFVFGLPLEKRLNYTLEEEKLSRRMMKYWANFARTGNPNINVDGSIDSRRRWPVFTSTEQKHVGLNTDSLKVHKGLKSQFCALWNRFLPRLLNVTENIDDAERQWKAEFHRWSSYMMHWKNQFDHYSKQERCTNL
Chain of Cholinesterase (P81908 whole entry): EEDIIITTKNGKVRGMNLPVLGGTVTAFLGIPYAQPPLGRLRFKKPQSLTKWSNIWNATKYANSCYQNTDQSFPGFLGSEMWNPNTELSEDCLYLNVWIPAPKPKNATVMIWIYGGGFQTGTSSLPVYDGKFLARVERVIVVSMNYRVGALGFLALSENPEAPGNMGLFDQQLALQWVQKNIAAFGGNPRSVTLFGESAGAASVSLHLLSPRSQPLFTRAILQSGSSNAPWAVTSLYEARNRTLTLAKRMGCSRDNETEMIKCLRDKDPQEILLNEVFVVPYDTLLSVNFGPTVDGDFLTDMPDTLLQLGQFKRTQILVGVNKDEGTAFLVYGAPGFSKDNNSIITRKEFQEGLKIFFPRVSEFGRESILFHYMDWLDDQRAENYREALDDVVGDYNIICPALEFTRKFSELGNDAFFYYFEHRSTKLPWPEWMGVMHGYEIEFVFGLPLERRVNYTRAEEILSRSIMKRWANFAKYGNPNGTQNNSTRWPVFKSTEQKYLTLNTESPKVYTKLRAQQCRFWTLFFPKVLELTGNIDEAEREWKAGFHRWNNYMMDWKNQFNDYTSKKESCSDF

| Structure (SMILES) | IC50 (Acetylcholinesterase) [nM] | IC50 (Cholinesterase) [nM] | logKd [1] | logKd [2] | Activity (Rattus norvegicus [3]) | Activity (Rattus norvegicus [4]) |
| --- | --- | --- | --- | --- | --- | --- |
| CN1CCC=C(c2nsnc2OCCCOCC(=O)NCCCNc2c3c(nc4ccccc24)CCCC3)C1 | 14.8 | 9.77 | 7.87 | 8.1 | – | – |
| CN1CCC=C(c2nsnc2OCCCOCCCCC(=O)NCCCCNc2c3c(nc4ccccc24)CCCC3)C1 | 8.71 | 5.89 | – | – | – | – |
| CN1CCC=C(c2nsnc2OCCCOCCC(=O)NCCCCCCCCNc2c3c(nc4ccccc24)CCCC3)C1 | 22.9 | 13.2 | 6.7 | 7.57 | – | – |
| CN1CCC=C(c2nsnc2OCCCOCCC(=O)NCCCNc2c3c(nc4ccccc24)CCCC3)C1 | 13.5 | 10.7 | 8.03 | 8.09 | – | – |
| CN1CCC=C(c2nsnc2OCCCCNCCCNc2c3c(nc4ccccc24)CCCC3)C1 | 63.1 | 28.8 | – | – | – | – |
| CN1CCC=C(c2nsnc2OCCCCNCCCCNc2c3c(nc4ccccc24)CCCC3)C1 | 43.7 | 16.2 | 7.49 | 8.13 | – | – |
| CN1CCC=C(c2nsnc2OCCCCNCCCCCNc2c3c(nc4ccccc24)CCCC3)C1 | 21.9 | 12.3 | – | – | – | – |
| CN1CCC=C(c2nsnc2OCCCOCCC(=O)NCCCCNc2c3c(nc4ccccc24)CCCC3)C1 | 10.7 | 9.12 | – | – | – | – |
| CN1CCC=C(c2nsnc2OCCCCNCCCCCCCCNc2c3c(nc4ccccc24)CCCC3)C1 | 26.3 | 13.5 | – | – | – | – |
| CN1CCC=C(c2nsnc2OCCCOCC(=O)NCCCCCCCCNc2c3c(nc4ccccc24)CCCC3)C1 | 6.61 | 5.13 | 6.35 | 6.88 | Active | Active |
| CN1CCC=C(c2nsnc2OCCCOCC(=O)NCCCCNc2c3c(nc4ccccc24)CCCC3)C1 | 12 | 10.7 | – | – | – | – |
| CN1CCC=C(c2nsnc2OCCCOCCCCC(=O)NCCCNc2c3c(nc4ccccc24)CCCC3)C1 | 10.2 | 8.91 | – | – | – | – |
| CN1CCC=C(c2nsnc2OCCCOCCCCC(=O)NCCCCCCCCNc2c3c(nc4ccccc24)CCCC3)C1 | 6.17 | 5.89 | – | – | – | – |
| CCCCCCOc1nsnc1C1=CCCN(C)C1 | – | – | 4.94 | 7.4 | – | – |
| CN1CCC=C(c2nsnc2OCCCOCCCC(=O)NCCCCCCCCNc2c3c(nc4ccccc24)CCCC3)C1 | 6.46 | 5.01 | 7.06 | 7.38 | – | – |
| CN1CCC=C(c2nsnc2OCCCOCCCC(=O)NCCCCNc2c3c(nc4ccccc24)CCCC3)C1 | – | 6.76 | – | – | – | – |
| CN1CCC=C(c2nsnc2OCCCOCCCC(=O)NCCCNc2c3c(nc4ccccc24)CCCC3)C1 | 10.7 | 10 | – | – | – | – |

Source: ChEMBL document CHEMBL1157605, “Hybrid molecules from xanomeline and tacrine: enhanced tacrine actions on cholinesterases and muscarinic M1 receptors” (J Med Chem, 2010)
